Assay results: ChEMBL document CHEMBL4725459, “Novel Pyrazoles as Hemoglobin Modulators for Treating Sickle Cell Disease” (ACS Med Chem Lett, 2020)
pIC50, pKd: −log10 of the molar value.

Experiments:
[1] = Stabilization of purified human sickle cell hemoglobin at its oxygenated (R) state assessed as reduction in conversion from oxygenated (R, relaxed state) to deoxygenated (T, tense state) under deoxygenating conditions
[2] = Binding affinity to purified human sickle cell hemoglobin by SPR assay

SMILES	pIC50 [1]	pKd [2]
C[C@H](Oc1cc2cc(F)cc(F)c2nc1N)c1ncc(F)cc1-n1cccn1	5.44	7.35
C[C@H](Oc1cc2cc(F)ccc2nc1N)c1nc(OCCO)ccc1-n1cccn1	5.42	7.36
CC(=O)c1nc2[nH]ncc2cc1-n1cccn1	5.42	7.44
C[C@H](Oc1cc2cc(C(N)=O)cc(F)c2nc1N)c1ncc(F)cc1-n1cccn1	5.41	7.17
C[C@H](Oc1cc2cc(F)ccc2nc1N)c1cc(OCC(=O)O)ccc1-n1cccn1	5.41	7.20
C[C@H](Oc1cc2cc(F)ccc2nc1N)c1cc(CCC(=O)O)ccc1-n1cccn1	5.44	6.73
